Experimental data reported in ChEMBL document CHEMBL4393697, “Lipophilic efficient phenylthiazoles with potent undecaprenyl pyrophosphatase inhibitory activity” (Eur J Med Chem, 2019).
In brackets after ≈: the same amount, converted by molar mass. Activity calls are given as the source filed them. No cut-off for these calls is given here.

Assays:
Enterococcus faecalis [1] = assay: Antibacterial activity against vancomycin resistant Enterococcus faecalis ATCC 51299 assessed as reduction in bacterial cell growth incubated for 18 to 20 hrs by broth microdilution method; type: functional
Staphylococcus aureus [2] = assay: Bactericidal activity against vancomycin resistant Staphylococcus aureus VRS10 assessed as reduction in bacterial cell growth incubated for 18 to 20 hrs followed by re-plating on tryptic soy agar plates at 37 degC for 18 hrs by broth microdilution assay; type: functional
Staphylococcus aureus [3] = assay: Bactericidal activity against vancomycin resistant Staphylococcus aureus VRS11a assessed as reduction in bacterial cell growth incubated for 18 to 20 hrs followed by re-plating on tryptic soy agar plates at 37 degC for 18 hrs by broth microdilution assay; type: functional
Enterococcus faecalis [4] = assay: Bactericidal activity against vancomycin resistant Enterococcus faecalis ATCC 51299 assessed as reduction in bacterial cell growth incubated for 18 to 20 hrs followed by re-plating on tryptic soy agar plates at 37 degC for 18 hrs by broth microdilution assay; type: functional
Klebsiella pneumoniae = assay: Bactericidal activity against Klebsiella pneumoniae BAA-1706 assessed as reduction in bacterial cell growth incubated for 18 to 20 hrs followed by re-plating on tryptic soy agar plates at 37 degC for 18 hrs by broth microdilution assay; type: functional
J774 [5] = assay: Cytotoxicity against mouse J774 assessed as reduction in cell viability at 16 ug/ml incubated for 24 hrs by MTS assay; type: cell-based; conditions: j774, 24 h
Staphylococcus aureus [6] = assay: Ratio of MBC to MIC for Staphylococcus aureus ATCC 6538 by broth microdilution assay; type: functional
Staphylococcus aureus [7] = assay: Ratio of MBC to MIC for Staphylococcus aureus NRS107 by broth microdilution assay; type: functional
Enterococcus faecalis [8] = assay: Ratio of MBC to MIC for vancomycin resistant Enterococcus faecalis ATCC 51299 by broth microdilution method; type: functional
Enterococcus faecium = assay: Ratio of MBC to MIC for vancomycin resistant Enterococcus faecium ATCC 700221 by broth microdilution method; type: functional
Listeria monocytogenes = assay: Ratio of MBC to MIC for Listeria monocytogenes ATCC 19111 by broth microdilution assay; type: functional
Streptococcus pneumoniae [9] = assay: Ratio of MBC to MIC for Cephalosporin resistant Streptococcus pneumoniae ATCC 51916 by broth microdilution method; type: functional
Streptococcus pneumoniae [10] = assay: Ratio of MBC to MIC for Methicillin resistant Streptococcus pneumoniae ATCC 700677 by broth microdilution method; type: functional
Staphylococcus aureus [11] = assay: Antibacterial activity against methicillin-resistant Staphylococcus aureus USA400 assessed as reduction in CFU at 4 x MIC preincubated for 6 hrs in Tryptic soy broth followed by incubation for 18 to 20 hrs on TSA plate by time-kill assay; type: functional, organism-based
Staphylococcus aureus [12] = assay: Antibacterial activity against methicillin-resistant Staphylococcus aureus USA400 treated over 14 passages by broth microdilution assay; type: functional, organism-based
Staphylococcus aureus [13] = assay: Antibacterial activity against methicillin-resistant Staphylococcus aureus USA400 assessed as reduction in CFU at 4 x MIC preincubated for 12 hrs in Tryptic soy broth followed by incubation for 18 to 20 hrs on TSA plate by time-kill assay; type: functional
Staphylococcus aureus [14] = assay: Antibacterial activity against methicillin-resistant Staphylococcus aureus USA400 assessed as reduction in CFU at 4 x MIC preincubated for 24 hrs in Tryptic soy broth followed by incubation for 18 to 20 hrs on TSA plate by time-kill assay; type: functional, organism-based
Staphylococcus aureus [15] = assay: Resistance index, ratio of MIC for antibacterial activity against methicillin-resistant Staphylococcus aureus USA400 treated repeatedly over 6 passages to MIC for antibacterial activity against methicillin-resistant Staphylococcus aureus USA400 treated for 18 to 20 hrs by broth microdilution assay; type: functional
J774 [16] = assay: Cytotoxicity against mouse J774 cells reduction in cell viability up to 32 ug/ml incubated for 24 hrs by MTS assay; type: cell-based; conditions: j774, 24 h

SMILES | MIC (Enterococcus faecalis [1]) | MBC (Staphylococcus aureus [2]) | MBC (Staphylococcus aureus [3]) | MBC (Enterococcus faecalis [4]) | MBC (Klebsiella pneumoniae) | Activity (J774 [5]) | Ratio (Staphylococcus aureus [6]) | Ratio (Staphylococcus aureus [7]) | Ratio (Enterococcus faecalis [8]) | Ratio (Enterococcus faecium) | Ratio (Listeria monocytogenes) | Ratio (Streptococcus pneumoniae [9]) | Ratio (Streptococcus pneumoniae [10]) | inhibition (Staphylococcus aureus [11]) | Activity (Staphylococcus aureus [12]) | Activity (Staphylococcus aureus [13]) | inhibition (Staphylococcus aureus [14]) | Ratio (Staphylococcus aureus [15]) | Activity (J774 [16])
C/C(=N\NC(=N)N)c1sc(-c2ccc(C#CC(C)(C)O)cc2)nc1C | 4 µg/mL (≈ 11.3 µM) | 16 µg/mL (≈ 45 µM) | 4 µg/mL (≈ 11.3 µM) | 8 µg/mL (≈ 22.5 µM) | > 64 µg/mL | Toxic | 2 | 2 | 2 | 2 | 2 | 2 | 2 |  |  |  |  |  | 
C/C(=N\NC(=N)N)c1sc(-c2ccc(C#CC3(O)CCCCC3)cc2)nc1C | 8 µg/mL (≈ 20.2 µM) | 8 µg/mL (≈ 20.2 µM) | 8 µg/mL (≈ 20.2 µM) | 16 µg/mL (≈ 40.5 µM) | > 64 µg/mL | Non-Toxic | 2 | 2 | 2 | 2 | 2 | 2 | 2 | Active | Active |  |  |  | 
C/C(=N\NC(=N)N)c1sc(-c2ccc(C#Cc3ccc(C)s3)cc2)nc1C | 16 µg/mL (≈ 40.7 µM) | 8 µg/mL (≈ 20.3 µM) | 8 µg/mL (≈ 20.3 µM) | 64 µg/mL (≈ 163 µM) | 64 µg/mL (≈ 163 µM) | Non-Toxic |  |  |  |  |  |  |  |  |  | 3 log10CFU | Active | 1 | 
C/C(=N\NC(=N)N)c1sc(-c2ccc(C#Cc3ccc(N)cc3)cc2)nc1C | > 64 µg/mL | 32 µg/mL (≈ 82.4 µM) | 32 µg/mL (≈ 82.4 µM) | > 64 µg/mL | > 64 µg/mL | Non-Toxic |  |  |  |  |  |  |  |  |  | 3 log10CFU | Active | 1 | Non-Toxic
